Patent publication US8680012B2, “4-phenyl-pyrane-3,5-diones,4-phenyl-thiopyrane-3,6-diones and cyclohexanetriones as novel herbicides” (Syngenta Crop Protection LLC, priority 2006, dated 2014)

What was measured:
Format in all cases: in vivo
[1] = test system: Alopecurus myosuroides (ALOMY); assay: Example B pre-emergence herbicidal activity, glasshouse pot test; conditions: 312 h, rate 250 g/ha, evaluated after 13 days, read-out: Pre-emergence activity ALOMY (100=total damage to plant; 0=no damage to plant)
Experimental: (§1) Seeds of a variety of test species were sown in standard soil in pots. After cultivation for one day (pre-emergence) or after 8 days cultivation (post-emergence) under controlled conditions in a glasshouse (at 24/16° C., day/night; 14 hours light; 65% humidity), the plants were sprayed with an aqueous spray solution derived from the formulation of the technical active ingredient in acetone/water (50:50) solution containing 0.5% Tween 20 (polyoxyethelyene sorbitan monolaurate, CAS RN 9005-64-5). The test plants were then grown in a glasshouse under controlled conditions in a glasshouse (at 24/16° C., day/night; 14 hours light; 65% humidity) and watered twice daily. After 13 days for pre and post-emergence, the test was evaluated (100=total damage to plant; 0=no damage to plant).
(§2) Alopecurus myosuroides (ALOMY), Avena fatua (AVEFA), Setaria faberi (SETFA), Echinochloa crus-galli (ECHCG), Solanum nigrum (SOLNI) and Amaranthus retroflexus (AMARE)

[2] = test system: Amaranthus retroflexus (AMARE); assay: as above; conditions: 312 h, rate 250 g/ha, evaluated after 13 days, read-out: Pre-emergence activity AMARE (100=total damage to plant; 0=no damage to plant)
Experimental: as §1, §2

Avena fatua (AVEFA) [3] = assay: as above; conditions: 312 h, rate 250 g/ha, evaluated after 13 days, read-out: Pre-emergence activity AVEFA (100=total damage to plant; 0=no damage to plant)
Experimental: as §1, §2

[4] = test system: Echinochloa crus-galli (ECHCG); assay: as above; conditions: 312 h, rate 250 g/ha, evaluated after 13 days, read-out: Pre-emergence activity ECHCG (100=total damage to plant; 0=no damage to plant)
Experimental: as §1, §2

Setaria faberi (SETFA) [5] = assay: as above; conditions: 312 h, rate 250 g/ha, evaluated after 13 days, read-out: Pre-emergence activity SETFA (100=total damage to plant; 0=no damage to plant)
Experimental: as §1, §2

[6] = test system: Alopecurus myosuroides (ALOMY); assay: Example B post-emergence herbicidal activity, glasshouse pot test; conditions: 312 h, rate 250 g/ha, evaluated after 13 days, read-out: Post-emergence activity ALOMY (100=total damage to plant; 0=no damage to plant)
Experimental: as §1, §2

[7] = test system: Amaranthus retroflexus (AMARE); assay: as above; conditions: 312 h, rate 250 g/ha, evaluated after 13 days, read-out: Post-emergence activity AMARE (100=total damage to plant; 0=no damage to plant)
Experimental: as §1, §2

Avena fatua (AVEFA) [8] = assay: as above; conditions: 312 h, rate 250 g/ha, evaluated after 13 days, read-out: Post-emergence activity AVEFA (100=total damage to plant; 0=no damage to plant)
Experimental: as §1, §2

[9] = test system: Echinochloa crus-galli (ECHCG); assay: as above; conditions: 312 h, rate 250 g/ha, evaluated after 13 days, read-out: Post-emergence activity ECHCG (100=total damage to plant; 0=no damage to plant)
Experimental: as §1, §2

Setaria faberi (SETFA) [10] = assay: as above; conditions: 312 h, rate 250 g/ha, evaluated after 13 days, read-out: Post-emergence activity SETFA (100=total damage to plant; 0=no damage to plant)
Experimental: as §1, §2

Structure (SMILES) | pest or weed control at 250 g/ha [1] [%] | pest or weed control at 250 g/ha [2] [%] | pest or weed control at 250 g/ha (Avena fatua (AVEFA) [3]) [%] | pest or weed control at 250 g/ha [4] [%] | pest or weed control at 250 g/ha (Setaria faberi (SETFA) [5]) [%] | pest or weed control at 250 g/ha [6] [%] | pest or weed control at 250 g/ha [7] [%] | pest or weed control at 250 g/ha (Avena fatua (AVEFA) [8]) [%] | pest or weed control at 250 g/ha [9] [%] | pest or weed control at 250 g/ha (Setaria faberi (SETFA) [10]) [%]
CCc1ccc(-c2ccc(I)cc2)cc1C1=C(O)C(C)(C)OC(C)(C)C1=O [Compound A-101] | 70 | 0 | 100 | 100 | 100 | 100 | 0 | 100 | 100 | 100
CCc1ccc(-c2ccc(Cl)c(F)c2)cc1C1=C(O)C(C)(C)S(=O)(=O)C(C)(C)C1=O [Compound C-13] | 20 | 0 | 90 | 30 | 80 | 80 | 20 | 90 | 100 | 100
CCc1ccc(-c2ccc(Cl)cc2)cc1C1=C(O)C(C)(C)OC(C)(C)C1=O [Compound A-4] | 70 | 20 | 70 | 100 | 100 | 90 | 20 | 80 | 100 | 100
CCc1ccc(-c2ccc(Cl)cc2)cc1C1=C(O)[C@@]2(C)CC[C@](C)(O2)C1=O (single isomer, unassigned) [Compound A-83] | 50 | 0 | 40 | 90 | 100 | 80 | 0 | 80 | 100 | 100
CCc1ccc(-c2ccc(Cl)c(F)c2)cc1C1=C(O)[C@@]2(C)CC[C@H](O2)C1=O (single isomer, unassigned) [Compound A-125] | 70 | 0 | 80 | 90 | 100 | 100 | 0 | 90 | 100 | 100
CCc1ccc(-c2ccc(Cl)cc2)cc1C1=C(O)[C@@]2(CC)CC[C@H](O2)C1=O [Compound A-79] | 40 | 0 | 40 | 80 | 100 | 80 | 0 | 50 | 100 | 100
CCc1ccc(-c2ccc(Cl)c(F)c2F)cc1C1=C(O)C(C)(C)OC(C)(C)C1=O [Compound A-153] | 60 | 0 | 50 | 100 | 100 | 100 | 30 | 100 | 100 | 100
CCc1ccc(-c2ccc(Cl)c(C(F)(F)F)c2F)cc1C1=C(O)C(C)(C)OC(C)(C)C1=O [Compound A-154] | 50 | 0 | 20 | 100 | 90 | 100 | 0 | 70 | 100 | 100
Cc1ccc(-c2ccc(Cl)cc2Cl)cc1C1=C(O)C(C)(C)SC(C)(C)C1=O [Compound C-6] | 0 | 0 | 0 | 0 | 0 | 20 | 40 | 0 | 60 | 30
C#Cc1ccc(-c2ccc(CC)c(C3=C(O)C(C)(C)OC(C)(C)C3=O)c2)cc1 [Compound A-98] | 0 | 50 | 0 | 90 | 90 | 50 | 30 | 70 | 100 | 100
Cc1ccc(-c2ccc(Cl)c(F)c2)cc1C1=C(O)C(C)(C)SC(C)(C)C1=O (single isomer, unassigned) [Compound C-9] | 0 | 0 | 0 | 0 | 0 | 50 | 0 | 40 | 70 | 10
CC1(C)OC(C)(C)C(O)=C(c2cc(-c3ccc(Cl)cc3F)ccc2Cl)C1=O [Compound A-141] | 20 | 0 | 30 | 100 | 80 | 50 | 0 | 50 | 100 | 80
CCc1ccc(-c2ccc(Cl)c(Cl)c2)cc1C1=C(O)[C@]2(C)O[C@@H](CC2COC)C1=O (stereo partly drawn) [Compound A-130] | 20 | 0 | 20 | 40 | 90 | 40 | 0 | 40 | 100 | 100
CCC(=O)OC1=C(c2cc(-c3ccc(Cl)cc3Cl)ccc2CC)C(=O)C(C)(C)OC1(C)C [Compound D-25] | 20 | 0 | 0 | 90 | 90 | 0 | 0 | 20 | 90 | 90
CCc1ccc(-c2ccc(Cl)cc2)cc1C1=C(O)[C@]2(C)O[C@@H](CC2COC)C1=O (stereo partly drawn) [Compound A-122] | 40 | 0 | 100 | 90 | 100 | 80 | 40 | 50 | 100 | 100
